Experimental findings from patent US7001896B2, “Compositions for treating diabetes” (Otsuka Pharmaceutical Factory, Inc., priority 2000, dated 2006) are described below.

The subject of this experiment is New Zealand white rabbits given high-fat, high-sugar feed. Nature of the experiment: Pharmacological Test Example 1: serum glucose level in rabbits fed high-fat, high-sugar feed. It is filed as in vivo. The note with it: for serum glucose level (mean±S.D.): Group 2 (n = 6), high-fat, high-sugar feed containing 1% Compound A from week 4, fasted overnight, feed 35 g/kg/day. An excerpt:
In this test, New Zealand white rabbits each weighing about 2 kg were divided into three groups, i.e., Group 1 consisting of 5 rabbits, Group 2 consisting of 6 rabbits, and Group 3 consisting of 6 rabbits.
The Group 1 rabbits were fed on an ordinary feed (Standard laboratory chow for rabbits, product of Shanghai Shengwang Experimental Animal Ranch (P.R. China)) (Normal Group).
The Group 2 rabbits were given for 4 weeks a high-fat, high-sugar feed prepared by adding 10% lard and 37% sucrose to the above-described standard laboratory chow. After confirming increases in blood glucose level, these rabbits were fed a high-fat, high-sugar feed as described above but containing 1% of the active ingredient (Compound A) of the pharmaceutical composition of the invention for treating diabetes (Experimental Group).
The Group 3 rabbits were fed the high-fat, high-sugar feed prepared by adding 10% lard and 37% sucrose to the standard laboratory chow described above (Control Group).
The rabbits of each group were allowed to eat the respective feeds ad libitum. In all groups, the amount of feed given was 35 g/kg/day per rabbit. The test period (period of feeding) was 24 weeks.
At the beginning of the test (0 week) and 4 weeks, 8 weeks, 12 weeks, 16 weeks, 20 weeks and 24 weeks later, the rabbits of each group fasted overnight, and blood samples were then collected from the auricular artery and assayed to measure the serum glucose level (mg/dl) using a commercially available glucose determination kit for enzymatic assaying (Glucose determination kit (Glucose oxidase-peroxidase method), product of Shanghai Rongsheng Biotech Inc. (P.R China).

With `CCOP(=O)(Cc1ccc(C(=O)Nc2ccc(Br)cc2C#N)cc1)OCC` [Compound A, 4-diethoxyphosphinoylmethyl-N-(4-bromo-2-cyanophenyl)benzamide], the “serum glucose level (mean±S.D.)” value (8 weeks later) is 124.7 ± 29.2 mg/dL; the “serum glucose level (mean±S.D.)” value (12 weeks later) stood at 84.7 ± 19.5 mg/dL; the “serum glucose level (mean±S.D.)” value (16 weeks later) came to 85.3 ± 12.8 mg/dL; the “serum glucose level (mean±S.D.)” value (20 weeks later) was 90.0 ± 15.7 mg/dL; the “serum glucose level (mean±S.D.)” value (24 weeks later) stood at 73.6 ± 6.1 mg/dL. For the same compound, the “change in blood glucose level (in words)” value (Group 2 given high-fat, high-sugar feed containing Compound A from 4 weeks after the beginning of the test, 24-week test, versus Control Group 3 with continuous increase) is on record as “significant decrease in blood glucose level over time”.
